Drawing on patent publication US20070287699A1, “ANTIVIRAL AGENTS” (ViroBay, Inc., priority 2006, published 2007), this text covers IC50 for 28 compounds.

Each structure is given as a SMILES string. Bounds are passed on as bounds.

The test deals with HCV replicon RNA replication in human Huh7 hepatoma cells. Description: HCV replicon assay (activity levels from either or both of HCV replicon assay 1, Huh7/Clone A RT-qPCR, and assay 2, Huh7 ET luc-ubi-neo/ET). It is filed as cell-based, Hepatitis C virus (HCV). The following applies: Hepatitis C virus, Huh-7, either or both HCV replicon assays: Huh7/Clone A, 48 hours, 72 hours, Luc activity or RT-PCR, read-out: inhibit HCV replication at IC50 levels or estimated IC50 levels. In a few lines:
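Huh7/Clone A subgenomic replicon cells treated 48 h at 37° C. with 7 serial dilutions in triplicate (0.5% DMSO final). Replicon RNA measured by TaqMan RT-qPCR on the neo gene, normalized to RiboGreen total RNA; untreated cells set as 100% for IC50.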

For the compound `O=c1c(-c2noc(Cc3ccccc3)n2)cn(Cc2ccc(C(F)(F)F)cc2)c2cc(N3CCNCC3)c(F)cc12` [Compound 70, 3-(5-benzyl-[1,2,4]oxadiazol-3-yl)-6-fluoro-7-piperazin-1-yl-1-(4-trifluoromethyl-benzyl)-1H-quinolin-4-one], the IC50 – broadly, the concentration that inhibits the measured activity by half – is less than 0.5 µM.

As to `CC(C)(c1ccc(F)cc1)c1nc(-c2cn(Cc3ccc(C(F)(F)F)cc3)c3cc(N4CCNC(=O)C4)c(F)cc3c2=O)no1` [Compound 125, 6-fluoro-3-(5-(2-(4-fluorophenyl)propan-2-yl)-1,2,4-oxadiazol-3-yl)-7-(3-oxopiperazin-1-yl)-1-(4-(trifluoromethyl)benzyl)quinolin-4(1H)-one], the IC50 is less than 0.5 µM.

As for `CN1CCN(c2cc3c(cc2F)c(=O)c(-c2noc(Cc4ccccc4)n2)cn3CCN2CCOCC2)CC1` [Compound 59, 3-(5-benzyl-[1,2,4]oxadiazol-3-yl)-6-fluoro-7-(4-methyl-piperazin-1-yl)-1-(2-morpholin-4-yl-ethyl)-1H-quinolin-4-one], the IC50 was greater than 10 µM.

On to `CC(C)(c1ccccc1)c1nnc(-c2cn(Cc3ccc(C(F)(F)F)cc3)c3cc(N4CCOCC4)c(F)cc3c2=O)o1` [Compound 167, 6-fluoro-7-morpholino-3-(5-(2-phenylpropan-2-yl)-1,3,4-oxadiazol-2-yl)-1-(4-(trifluoromethyl)benzyl)quinolin-4(1H)-one], for which the IC50 is less than 2 µM.

With `CC(C)(c1ccccc1)c1nc(-c2cn(Cc3ccc(C(F)(F)F)cc3)c3cc(N4CCSCC4)c(F)cc3c2=O)no1` [Compound 101, 6-fluoro-3-[5-(1-methyl-1-phenyl-ethyl)-[1,2,4]oxadiazol-3-yl]-7-thiomorpholin-4-yl-1-(4-trifluoromethyl-benzyl)-1H-quinolin-4-one], the IC50 was less than 0.5 µM.

As for `CN1CCN(c2cc3c(cc2F)c(=O)c(-c2nnc(Cc4ccccc4)o2)cn3Cc2ccc(C(F)(F)F)cc2F)CC1` [Compound 165, 3-(5-benzyl-[1,3,4]oxadiazol-2-yl)-1-(4-(2-fluoro-4-trifluormethyl)-benzyl)-6-fluoro-7-(4-methyl-piperazin-1-yl)-1H-quinolin-4-one], the IC50 is less than 2 µM.

Consider `CN1CCN(c2cc3c(cc2F)c(=O)c(-c2noc(C(C)(C)c4ccccc4)n2)cn3Cc2ccc(Cl)nc2)CC1` [Compound 92, 1-(6-chloro-pyridin-3-ylmethyl)-6-fluoro-3-[5-(1-methyl-1-phenyl-ethyl)-[1,2,4]oxadiazol-3-yl]-7-(4-methyl-piperazin-1-yl)-1H-quinolin-4-one], for which the IC50 was less than 0.5 µM.

On to `O=c1c(-c2noc(Cc3ccccc3)n2)cn(Cc2ccc(Cl)cc2)c2cc(N3CCNCC3)c(F)cc12` [Compound 25, 3-(5-benzyl-[1,2,4]oxadiazol-3-yl)-1-(4-chloro-benzyl)-6-fluoro-7-piperazin-1-yl-1H-quinolin-4-one], for which the IC50 is less than 2 µM.

For `CN1CCN(c2cc3c(cc2F)c(=O)c(-c2nnc(Cc4ccccc4)o2)cn3Cc2ccc(Cl)cc2)CC1` [Compound 164, 3-(5-benzyl-[1,3,4]oxadiazol-2-yl)-1-(4-chloro-benzyl)-6-fluoro-7-(4-methyl-piperazin-1-yl)-1H-quinolin-4-one], the IC50 was less than 10 µM.

Regarding `COc1cc2c(=O)c(-c3noc(Cc4ccccc4)n3)cn(Cc3ccc(Cl)cc3)c2cc1OC` [Compound 1, 3-(5-Benzyl-[1,2,4]oxadiazol-3-yl)-1-(4-chloro-benzyl)-6,7-dimethoxy-1H-quinolin-4-one], the IC50 was greater than 10 µM.

As to `O=c1c(-c2noc(Cc3ccccc3)n2)cn(Cc2ccc(C(F)(F)F)cc2F)c2cc(N3CCCNCC3)c(F)cc12` [Compound 38, 3-(5-benzyl-[1,2,4]oxadiazol-3-yl)-7-[1,4]diazepan-1-yl-6-fluoro-1-(2-fluoro-4-trifluoromethyl-benzyl)-1H-quinolin-4-one], the IC50 was less than 0.5 µM.

In the case of `CN(C)c1cc2c(cc1F)c(=O)c(-c1noc(C(C)(C)c3ccc(F)cc3)n1)cn2Cc1ccc(C(F)(F)F)cc1` [Compound 153, 7-(dimethylamino)-6-fluoro-3-(5-(2-(4-fluorophenyl)propan-2-yl)-1,2,4-oxadiazol-3-yl)-1-(4-(trifluoromethyl)benzyl)quinolin-4(1H)-one], the 50% inhibitory concentration (IC50) is less than 2 µM.

As for `COc1cc2c(=O)c(-c3nc(Cc4ccccc4)no3)cn(CC3CCCCC3)c2cc1OC` [Compound 170, 3-(3-benzyl-[1,2,4]oxadiazol-5-yl)-1-cyclohexylmethyl-6,7-dimethoxy-1H-quinolin-4-one], the IC50 is greater than 10 µM.

In the case of `COc1cc2c(=O)c(-c3noc(CC4CCCCC4)n3)cn(Cc3ccc(Cl)cc3)c2cc1OC` [Compound 5, 1-(4-chloro-benzyl)-3-(5-cyclohexylmethyl-[1,2,4]oxadiazol-3-yl)-6,7-dimethoxy-1H-quinolin-4-one], the IC50 is greater than 10 µM.

With `CN1CCN(c2cc3c(cc2F)c(=O)c(-c2noc(CN4CCCCC4)n2)cn3Cc2ccc(Cl)cc2)CC1` [Compound 52, 1-(4-chloro-benzyl)-6-fluoro-7-(4-methyl-piperazin-1-yl)-3-(5-piperidin-1-ylmethyl-[1,2,4]oxadiazol-3-yl)-1H-quinolin-4-one], the IC50 is greater than 10 µM.

Consider `CN1CCN(c2cc3c(cc2F)c(=O)c(-c2noc(Cc4ccccc4)n2)cn3Cc2ccc(Cl)cc2)CC1` [Compound 8, 3-(5-benzyl-[1,2,4]oxadiazol-3-yl)-1-(4-chloro-benzyl)-6-fluoro-7-(4-methyl-piperazin-1-yl)-1H-quinolin-4-one], for which the IC50 was less than 2 µM.

As to `CN(CC(N)=O)c1cc2c(cc1F)c(=O)c(-c1noc(Cc3ccccc3)n1)cn2Cc1ccc(C(F)(F)F)cc1` [Compound 97, 2-{[3-(5-benzyl-[1,2,4]oxadiazol-3-yl)-6-fluoro-4-oxo-1-(4-trifluoromethyl-benzyl)-1,4-dihydro-quinolin-7-yl]-methyl-amino}-acetamide], the IC50 was greater than 10 µM.

As to `CN1CCN(c2cc3c(cc2F)c(=O)c(-c2noc(C(CCCC(N)=O)c4ccccc4)n2)cn3Cc2ccc(C(F)(F)F)cc2F)CC1` (stereo not shown) [Compound 89, 5-{3-[6-fluoro-1-(2-fluoro-4-trifluoromethyl-benzyl)-7-(4-methyl-piperazin-1-yl)-4-oxo-1,4-dihydro-quinolin-3-yl]-[1,2,4]oxadiazol-5-yl}-5-phenyl-pentanamide], the IC50 was less than 0.5 µM.

As to `CN1CCN(c2cc3c(cc2F)c(=O)c(-c2noc(Cc4ccc(F)cc4)n2)cn3Cc2ccc(Cl)nc2)CC1` [Compound 64, 1-(6-chloro-pyridin-3-ylmethyl)-6-fluoro-3-[5-(4-fluoro-benzyl)-[1,2,4]oxadiazol-3-yl]-7-(4-methyl-piperazin-1-yl)-1H-quinolin-4-one], the IC50 is less than 10 µM.

On to `CN1CCN(c2cc3c(cc2F)c(=O)c(-c2noc(Cc4ccccc4)n2)cn3Cc2ccc(Cl)nc2)CC1` [Compound 65, 3-(5-benzyl-[1,2,4]oxadiazol-3-yl)-1-(6-chloro-pyridin-3-ylmethyl)-6-fluoro-7-(4-methyl-piperazin-1-yl)-1H-quinolin-4-one], for which the IC50 was less than 10 µM.

For the compound `CN1CCN(c2cc3c(cc2F)c(=O)c(-c2noc(CN4CCCC4)n2)cn3Cc2ccc(Cl)cc2)CC1` [Compound 54, 1-(4-chloro-benzyl)-6-fluoro-7-(4-methyl-piperazin-1-yl)-3-(5-pyrrolidin-1-ylmethyl-[1,2,4]oxadiazol-3-yl)-1H-quinolin-4-one], the IC50 was greater than 10 µM.

Take `CN1CCN(c2cc3c(cc2F)c(=O)c(-c2noc(Cc4ccc(F)cc4F)n2)cn3Cc2ccc(Cl)cc2)CC1` [Compound 32, 1-(4-chloro-benzyl)-3-[5-(2,4-difluoro-benzyl)-[1,2,4]oxadiazol-3-yl]-6-fluoro-7-(4-methyl-piperazin-1-yl)-1H-quinolin-4-one]: the IC50 was greater than 10 µM.

In the case of `CC(C)(c1ccc(F)cc1)c1nc(-c2cn(Cc3ccc(F)cc3)c3ccccc3c2=O)no1` [Compound 156, 1-(4-fluorobenzyl)-3-(5-(2-(4-fluorophenyl)propan-2-yl)-1,2,4-oxadiazol-3-yl)quinolin-4(1H)-one], the IC50 is greater than 10 µM.

In the case of `C[C@@H]1CN(c2cc3c(cc2F)c(=O)c(-c2noc(C(C)(C)c4ccccc4)n2)cn3Cc2ccc(C(F)(F)F)cc2)C[C@H](C)N1` [Compound 131, 7-((3S,5R)-3,5-dimethylpiperazin-1-yl)-6-fluoro-3-(5-(2-phenylpropan-2-yl)-1,2,4-oxadiazol-3-yl)-1-(4-(trifluoromethyl)benzyl)quinolin-4(1H)-one], the IC50 is less than 0.5 µM.

With `O=c1c(-c2noc(Cc3ccc(F)cc3)n2)cn(Cc2ccc(Cl)cc2)c2cc(N3CCN(c4ccccn4)CC3)c(F)cc12` [Compound 50, 1-(4-chlorobenzyl)-6-fluoro-3-(5-(4-fluorobenzyl)-1,2,4-oxadiazol-3-yl)-7-(4-(pyridin-2-yl)piperazin-1-yl)quinolin-4(1H)-one], the IC50 was greater than 10 µM.

Take `CN1CCN(c2cc3c(cc2F)c(=O)c(-c2noc(C(CC#N)c4ccccc4)n2)cn3Cc2ccc(Cl)cc2)CC1` (stereo not shown) [Compound 53, 3-{3-[1-(4-chloro-benzyl)-6-fluoro-7-(4-methyl-piperazin-1-yl)-4-oxo-1,4-dihydro-quinolin-3-yl]-[1,2,4]oxadiazol-5-yl}-3-phenyl-propionitrile]: the IC50 was less than 10 µM.

For the compound `O=c1c(-c2noc(Cc3ccccc3)n2)cn(Cc2ccc(Cl)cc2)c2cc(N3CCC(O)CC3)c(F)cc12` [Compound 26, 3-(5-benzyl-[1,2,4]oxadiazol-3-yl)-1-(4-chloro-benzyl)-6-fluoro-7-(4-hydroxy-piperidin-1-yl)-1H-quinolin-4-one], the IC50 was greater than 10 µM.

With `CN1CCN(c2cc3c(cc2F)c(=O)c(-c2noc(Cc4ccc(F)cc4)n2)cn3Cc2cccc(C(F)(F)F)c2)CC1` [Compound 91, 6-fluoro-3-[5-(4-fluoro-benzyl)-[1,2,4]oxadiazol-3-yl]-7-(4-methyl-piperazin-1-yl)-1-(3-trifluoromethyl-benzyl)-1H-quinolin-4-one], the IC50 is less than 2 µM.
